# Laboratory results published in PubChem BioAssay (NCI).
#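 A five-concentration, 48-hour dose response in 96-well plates underlies each endpoint, interpolated linearly between surrounding concentrations. GI50: concentration for 50% inhibition of growth. TGI: concentration producing complete growth inhibition.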
# Experiments:
# Assay in all cases: NCI-60 cell line screen, 48 h
# T-47D breast = test system: T-47D breast
# MDA-N = test system: MDA-N
# KM20L2 colon = test system: KM20L2 colon
# HOP-18 NSCLC = test system: HOP-18 NSCLC
# DLD-1 colon = test system: DLD-1 colon
# SNB-78 CNS = test system: SNB-78 CNS
# LXFL 529 NSCLC = test system: LXFL 529 NSCLC
# RXF-631 renal = test system: RXF-631 renal
# XF 498 CNS = test system: XF 498 CNS
SMILES,GI50 (T-47D breast),TGI (T-47D breast),further results
O=c1c(Br)ccc(Br)cc1Br,0.744 µM,3.71 µM,
Nc1c2c(c(O)c3c1=C(CO)C=N3)=NCCS2=O (centres undefined),0.688 µM,2.68 µM,
O=P1(NCCCl)OCCC(OO)N1CCCl (centres undefined),,17.7 µM,TGI (MDA-N): > 100 µM; TGI (KM20L2 colon): > 100 µM; TGI (HOP-18 NSCLC): > 100 µM; TGI (DLD-1 colon): 50.5 µM; TGI (SNB-78 CNS): 86.7 µM
Cc1cc2c(C=O)[nH]nc2c(C#N)c1C,,,TGI (LXFL 529 NSCLC): > 100 µM; TGI (RXF-631 renal): > 100 µM; TGI (KM20L2 colon): > 100 µM; TGI (DLD-1 colon): > 100 µM; TGI (SNB-78 CNS): > 100 µM
Nc1c(-c2ccc(-c3c(N)[n+]([O-])c4ccccc4[n+]3[O-])cc2)[n+]([O-])c2ccccc2[n+]1[O-],,,TGI (LXFL 529 NSCLC): 35.4 µM; TGI (XF 498 CNS): 23.9 µM; TGI (HOP-18 NSCLC): 20.2 µM; TGI (DLD-1 colon): 27.2 µM; TGI (SNB-78 CNS): 62.3 µM
CC(=O)Oc1cc(OC(C)=O)c(OC(C)=O)c2c1CC1C(=O)C3(CCc4ccccc43)C(=O)C1C2 (centres undefined),,,TGI (LXFL 529 NSCLC): 28 µM; TGI (KM20L2 colon): 48.3 µM; TGI (XF 498 CNS): 27.9 µM; TGI (HOP-18 NSCLC): 43.6 µM; TGI (DLD-1 colon): 35.2 µM; TGI (SNB-78 CNS): 58.2 µM
COc1ccc(-n2cc(-c3ccc(F)cc3)[nH]c2=O)cc1OC,> 100 µM,> 100 µM,
COc1ccc2c(c1)cn1c3ccc(OC)cc3[nH]c(=O)c21,1.04 µM,2.61 µM,
Cc1cccc(C)c1NC(=O)/C(CC(=O)CC(c1ccccc1)c1c(O)c2ccccc2oc1=O)=N/O (centres undefined),,,TGI (MDA-N): > 100 µM
COc1ccccc1NC(=O)C(=O)C(C#N)CC(C)(C)C=O (centres undefined),,> 100 µM,TGI (MDA-N): > 100 µM
COc1cc(-c2nc3cc(Cl)c(Cl)cc3[nH]2)ccc1OCC(=O)N=Nc1c(O)[nH]c2ccccc12,0.288 µM,1.14 µM,
O=C1OC(=O)C2C1C1(c3ccccc3)OC2(c2ccccc2)c2c(Br)c(Br)c(Br)c(Br)c21 (centres undefined),,,TGI (LXFL 529 NSCLC): > 100 µM; TGI (KM20L2 colon): > 100 µM; TGI (XF 498 CNS): > 100 µM; TGI (HOP-18 NSCLC): > 100 µM; TGI (DLD-1 colon): > 100 µM; TGI (SNB-78 CNS): > 100 µM
COc1cc2c(cc1OC)-c1c(c3ccc([N+](=O)[O-])cc3c(=O)n1CCCBr)C2=O,0.731 µM,> 100 µM,
C=C(C=O)[C@@H]1CC=C(C=O)CC1,3.06 µM,26.4 µM,
CN(Cc1cccc(Cl)c1)c1ccc(CO)c(Cl)c1,0.746 µM,5.17 µM,
CC(=O)O[C@H]1CC[C@@]2(C)[C@@H](CC[C@@H]3[C@@H]2CC(=O)[C@@]2(C)[C@H]3C[C@@H]3CC(C)=CC(=O)[C@@H]32)C1,,> 100 µM,TGI (MDA-N): > 100 µM
O=C1COCCN1c1ccc(NCc2cn(Cc3ccc(F)cc3)c3ccccc23)cc1,0.0522 µM,,

SMILES,GI50 (T-47D breast),TGI (T-47D breast),further results
C/C(=N\O)c1ccc(Nc2cc(-c3ccccc3)nc3c(O)cccc23)cc1,5.44 µM,32.9 µM,
CC/C(=C(/c1ccc(Cl)cc1)c1ccc(OCCCN(C)C)cc1)c1ccc(OC)cc1,3.76 µM,12.1 µM,
O=C(Nc1ccc(-n2cc(-c3ccncc3)c(-c3ccc(Cl)c(O)c3)n2)cc1)c1ccc(Cl)c(C(F)(F)F)c1,3.03 µM,> 34.9 µM,
Nc1c(C(=O)Nc2cccc3ccccc23)sc2nc3c(cc12)CCCCCC3,25.1 µM,> 50 µM,
CCC1(O)CC(c2ccccc2)N(C)C(c2ccccc2)C1 (centres undefined),,,TGI (LXFL 529 NSCLC): > 100 µM; TGI (RXF-631 renal): > 100 µM; TGI (KM20L2 colon): > 100 µM; TGI (DLD-1 colon): > 100 µM; TGI (SNB-78 CNS): > 100 µM
OC1/C(=C/c2ccccc2)CNC/C1=C\c1ccccc1 (centres undefined),,,TGI (LXFL 529 NSCLC): > 100 µM; TGI (KM20L2 colon): > 100 µM; TGI (HOP-18 NSCLC): > 100 µM; TGI (DLD-1 colon): > 100 µM; TGI (SNB-78 CNS): > 100 µM
Cc1cc(=O)[nH]c2c1C(=O)C(=O)C=C2,58.6 µM,> 100 µM,
Nc1c(S(=O)(=O)O)cc2c(c1Cl)C(=O)c1ccccc1C2=O,> 100 µM,> 100 µM,
O=C1/C=C/[C@@H](O)[C@@H]2C[C@@H](O)C[C@H]2/C=C/CCCCO1,1.14 µM,4.43 µM,
NCCCSCC(=O)O,,,TGI (LXFL 529 NSCLC): > 100 µM; TGI (KM20L2 colon): > 100 µM; TGI (SNB-78 CNS): > 100 µM
COc1cc(Cl)c(C)cc1NC(=O)c1cc2ccccc2cc1O,2.07 µM,11.7 µM,
Cc1nc(N(C)C)nc(-c2cccc(-c3ccn(CCN(C)C)n3)c2)c1C,> 20 µM,> 20 µM,
COc1ccc2c(C(=O)NCCCCCC(=O)O)cc3cc4c(cc3c2c1)OCO4,80 µM,> 100 µM,
Cc1cnc2n(c1=O)Cc1ccccc1CO2,6.79 µM,29.3 µM,
Cn1cc(C2=C(c3cn(CCCN/C(N)=N\[N+](=O)[O-])c4ccccc34)C(=O)NC2=O)c2ccccc21,2.01 µM,> 14.8 µM,
C=CCOc1ccc2c(c1)CC[C@@H]1[C@@H]2CC[C@]2(C)C(=O)/C(=N/O)C[C@@H]12,2.64 µM,> 40.4 µM,
